Values of other authors in paper PMC8537277 (Pharmaceuticals, 2021).

Target: HA receptor-binding site (RBS)
Set-up: method as in PMID 29610325
Settings: ref [20]; cited from earlier work

Question: For `CC(=O)N[C@H]1[C@H]([C@H](O)[C@H](O)CO)OC(O)(C(=O)O)C[C@@H]1O` (stereo partly shown) [sialic acid], which KD is on record?
Answer: Its KD is “mM range”.
